In US6960646B2, “Cyclic peptides as potent and selective melanocortin-4 receptors agonists” (Merck & Co., Inc., priority 2001, dated 2005):
“Also recorded” adds a separate entry of the source. Starred links: 1 amine or outer side, 2 acyl side, 3 side chain; linkers in the order of their positions; H or OH if unused. Positions of bridges follow the written chain, without caps; N, C: chain ends. Non-standard residues stand in square brackets, D forms with d. Residues, ends and D or L forms follow the SMILES beside them. ξ: configuration not given here. dPhe(4-Cl) = N[C@H](Cc1ccc(Cl)cc1)C(=O)O; 2Nal = N[C@@H](Cc1ccc2ccccc2c1)C(=O)O; Suc = O=C(CCC(=O)[*:2])[*:1]; ξE = NC(CCC(=O)O)C(=O)O; ξDab = NCCC(N)C(=O)O; ξK = NCCCCC(N)C(=O)O; ξDap = NCC(N)C(=O)O; Ava = NCCCCC(=O)O; GABA = NCCCC(=O)O; βAla = NCCC(=O)O

What was measured:
[1] = target: T1, hMC-3R (Homo sapiens, UniProt P41968); test: Competitive binding assay, [125I]-NDP-α-MSH, CHO cell membranes; details: 200 pM [125I]-NDP-α-MSH, read-out: Binding Assay IC50 hMC-3R
T1 construct: expressed in transfected cells; host or cells: Chinese hamster ovary (CHO) cells
T1 sequence (P41968 whole entry): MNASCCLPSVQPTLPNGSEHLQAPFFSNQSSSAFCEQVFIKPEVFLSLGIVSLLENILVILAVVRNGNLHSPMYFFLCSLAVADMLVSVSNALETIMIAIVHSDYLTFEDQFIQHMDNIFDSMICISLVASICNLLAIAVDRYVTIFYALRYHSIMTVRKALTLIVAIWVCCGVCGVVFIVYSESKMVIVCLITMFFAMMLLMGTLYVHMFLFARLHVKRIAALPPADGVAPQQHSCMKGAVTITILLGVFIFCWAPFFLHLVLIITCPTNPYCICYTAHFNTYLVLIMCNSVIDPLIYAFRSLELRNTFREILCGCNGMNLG
Procedure: (§1) The peptides of the present invention were evaluated for agonist activity in receptor binding assay. Crude membrane preparations were obtained from Chinese hamster ovary cells expressing human MC3, MC4, and MC5 receptors. Cells were rinsed with phosphate-buffered saline (PBS) lacking CaCl2 or MgCl2 (Life Technologies, Gaithersburg, Md., USA), and then detached with enzyme-free dissociation media (Specialty Media, Lavellette, N.J., USA). Cells were pelleted at 2800×g for 10 minutes and resuspended in membrane buffer (20 mM Tris, pH 7.2, 5 mM ethylenediaminetetraacetic acid) with 5 μg/ml leupeptin, 5 μg/ml aprotinin, 40 μg/ml bacitracin, and 25 μg/ml pefabloc (Boehringer Mannheim). The cells were […] with 10 strokes by using a motor-driven Teflon-coated pestle in a glass homogenizer at low speed. The resulting cell suspension was centrifuged at 4100×g, 4° C., for 20 minutes. The pellet was resuspended in fresh membrane buffer with protease inhibitors, aliquoted, snap-frozen in liquid nitrogen, and stored at −80° C. The resulting crude membranes were titrated to determine the optimal level necessary for performing binding studies.
(§2) Binding reactions (total volume=250 μl) contained MBB (50 mM Tris, pH 7.2, 2 mM CaCl2, 1 mM MgCl2), 0.1% bovine serum albumin, crude membranes prepared from cells expressing human MC3, MC4, or MC5 receptor, 200 pM of [125I]-NDP-α-MSH (Amersham, Arlington Heighs, Ill., USA), and increasing concentrations of unlabeled test compounds dissolved in dimethylsulfoxide (final concentration=2%). Reactions were incubated for 1 hour without shaking and then filtered through 96-well filter plates (Packard), presoaked in 1% polyethyleneimine. Filters were washed 3 times with TNE buffer (50 mM Tris, pH 7.4, 5 mM ethylene-diaminetetraacetic acid, 150 mM NaCl), dried and counted by using Microscint-20 in a Topcount scintillation counter (Packard). Nonspecific binding was determined in the presence of 2 μm of unlabeled NDP-α-MSH (Peninsula Laboratories). Active peptides were evaluated in three independent experiments.

[2] = target: T2, hMC-4R (Homo sapiens, UniProt P32245); test: as above; details: 200 pM [125I]-NDP-α-MSH, read-out: Binding Assay IC50 hMC-4R
T2 construct: expressed in transfected cells; host or cells: Chinese hamster ovary (CHO) cells
T2 sequence (P32245 whole entry): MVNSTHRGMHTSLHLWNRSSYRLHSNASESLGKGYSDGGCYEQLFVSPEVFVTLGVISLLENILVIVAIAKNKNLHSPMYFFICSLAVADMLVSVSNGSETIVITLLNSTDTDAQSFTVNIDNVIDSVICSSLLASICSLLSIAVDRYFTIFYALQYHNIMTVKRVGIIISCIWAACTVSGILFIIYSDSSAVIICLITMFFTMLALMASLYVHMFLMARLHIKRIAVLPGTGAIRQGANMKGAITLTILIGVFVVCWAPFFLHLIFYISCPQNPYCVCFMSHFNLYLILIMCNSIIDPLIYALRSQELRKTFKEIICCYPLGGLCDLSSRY
Procedure: as §1, §2

[3] = target: T3, hMC-5R (Homo sapiens, UniProt P33032); test: as above; details: 200 pM [125I]-NDP-α-MSH, read-out: Binding Assay IC50 hMC-5R
T3 construct: expressed in transfected cells; host or cells: Chinese hamster ovary (CHO) cells
T3 sequence (P33032 whole entry): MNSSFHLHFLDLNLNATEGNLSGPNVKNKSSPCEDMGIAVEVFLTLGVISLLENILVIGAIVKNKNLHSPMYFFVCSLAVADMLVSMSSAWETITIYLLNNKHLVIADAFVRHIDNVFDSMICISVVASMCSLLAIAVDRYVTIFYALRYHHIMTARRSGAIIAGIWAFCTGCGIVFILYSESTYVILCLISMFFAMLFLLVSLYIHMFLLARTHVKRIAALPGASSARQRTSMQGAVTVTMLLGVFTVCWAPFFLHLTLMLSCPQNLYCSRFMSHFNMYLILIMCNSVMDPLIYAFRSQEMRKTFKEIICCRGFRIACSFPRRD
Procedure: as §1, §2

[4] = target: T1, hMC-3R; test: cAMP assay in CHO cells expressing a human melanocortin receptor; format: cell-based; details: 45 minutes at room temperature
Procedure: (§3) Chinese hamster ovary cells expressing a human melanocortin receptor were rinsed with calcium- and magnesium-free PBS (Life Technologies), and detached from the tissue culture flasks by 5-minutes incubation with enzyme-free dissociation buffer (S-014-B, Specialty Media). Cells were collected by centrifugation and resuspended in Earle's balanced salt solution (Life Technologies) with addition of 10 mM 4-(2-hydroxyethyl)-1-piperazineethanesulfonic acid (Hepes) buffer, pH 7.5, 5 mM MgCl2, 1 mM glutamine, and 1 mg/ml bovine serum albumin to concentration of 1-5×10^6 cells/ml. Subsequently, cells were counted and the cell suspension was treated with the phosphodiesterase inhibitor 3-isobutyl-1-methylxanthine (to concentration of 0.6 mM).
(§4) A test compound was dissolved in dimethyl sulfoxide (DMSO, 10^−3 to 10^−8 M), diluted with buffer, and 0.1 volume of the solution was added to 0.9 volumes of the cell suspension (1 to 5×10^5 cells); final concentration of DMSO was 1%. After 45 minutes at room temperature, cells were lysed by incubation at 100° C. for 5 minutes to release accumulated cAMP. Accumulation of cAMP was measured in an aliquot of the cell lysate with the Amersham (Arlington Heights, Ill.) cAMP detection assay kit (RPA556). The amount of cAMP produced in response to a tested compound was compared to the amount of cAMP produced in response to α-MSH, defined as a 100% agonist. All active peptides were characterized in three independent experiments.

[5] = target: T2, hMC-4R; test: as above; format: cell-based; details: 45 minutes at room temperature
Procedure: as §3, §4

[6] = target: T3, hMC-5R; test: as above; format: cell-based; details: for EC50: CHO cells, 45 minutes at room temperature; for CAMP Assay hMC-5R, % activation at a single concentration: @ 5 (concentration unit not given), relative to α-MSH defined as a 100% agonist
Procedure: as §3, §4

[7] = rats, cited from earlier work; for Food intake: intraventricular administration / injection

## N=C(N)NCCC[C@@H]1NC(=O)[C@@H](Cc2ccc(Cl)cc2)NC(=O)[C@H](Cc2c[nH]cn2)NC(=O)CCC(=O)NCCCCC(C(N)=O)NC(=O)[C@H](Cc2c[nH]c3ccccc23)NC1=O (some centres unmarked) [Example 4] (H[dPhe(4-Cl)]RW[ξK]-NH2; linker N-5 via Suc)
[1]
  IC50: 17 nM
[2]
  IC50: 1.7 nM
[3]
  IC50: 0.092 µM
[4]
  EC50: 40 nM
[5]
  EC50: 0.74 nM
[6]
  EC50: 170 nM

## N=C(N)NCCC[C@@H]1NC(=O)[C@@H](Cc2ccccc2)NC(=O)[C@H](Cc2c[nH]cn2)NC(=O)CCC(=O)NCC(C(N)=O)NC(=O)[C@H](Cc2c[nH]c3ccccc23)NC1=O (some centres unmarked) [Example 3] (H[dF]RW[ξDap]-NH2; linker N-5 via Suc)
[1]
  IC50: 1600 nM
[2]
  IC50: 71 nM
[3]
  IC50: 3.6 µM
[4]
  EC50: 590 nM
[5]
  EC50: 33 nM
[6]
  CAMP Assay hMC-5R, % activation at a single concentration: 12% @ 5

## N=C(N)NCCC[C@@H]1NC(=O)[C@@H](Cc2ccccc2)NC(=O)[C@H](Cc2c[nH]cn2)NC(=O)CCCCNC(=O)CCC(C(N)=O)NC(=O)[C@H](Cc2c[nH]c3ccccc23)NC1=O (some centres unmarked) [Example 6] ([Ava]H[dF]RW[ξE]-NH2; lactam N-6)
[1]
  IC50: 580 nM
[2]
  IC50: 12 nM
[3]
  IC50: 9 µM
[4]
  EC50: 190 nM
[5]
  EC50: 2.7 nM
[6]
  EC50: 1900 nM

## N=C(N)NCCC[C@@H]1NC(=O)[C@@H](Cc2ccccc2)NC(=O)[C@H](Cc2c[nH]cn2)NC(=O)CCC(=O)NCCCCC(C(N)=O)NC(=O)[C@H](Cc2ccc3ccccc3c2)NC1=O (some centres unmarked) [Example 5] (H[dF]R[2Nal][ξK]-NH2; linker N-5 via Suc)
[1]
  IC50: 440 nM
[2]
  IC50: 13 nM
[3]
  IC50: > 20 µM
[4]
  EC50: 360 nM
[5]
  EC50: 3.7 nM
[6]
  EC50: > 5000 nM

## N=C(N)NCCC[C@@H]1NC(=O)[C@@H](Cc2ccccc2)NC(=O)[C@H](Cc2c[nH]cn2)NC(=O)CCNC(=O)CCC(C(N)=O)NC(=O)[C@H](Cc2c[nH]c3ccccc23)NC1=O (some centres unmarked) [Example 8] ([βAla]H[dF]RW[ξE]-NH2; lactam N-6)
[1]
  IC50: 450 nM
[3]
  IC50: 5.05 µM

## N=C(N)NCCC[C@@H]1NC(=O)[C@@H](Cc2ccccc2)NC(=O)[C@H](Cc2c[nH]cn2)NC(=O)CCC(=O)NCCCCC(C(N)=O)NC(=O)[C@H](Cc2c[nH]c3ccccc23)NC1=O (some centres unmarked) [Example 1] (H[dF]RW[ξK]-NH2; linker N-5 via Suc)
[1]
  IC50: 418 nM
[2]
  IC50: 25 nM
[3]
  IC50: 3.1 µM
[4]
  EC50: 110 nM
[5]
  EC50: 3.3 nM
[6]
  EC50: 1180 nM

## MTII
[7]
  Food intake: reduced food intake

## N=C(N)NCCC[C@@H]1NC(=O)[C@@H](Cc2ccccc2)NC(=O)[C@H](Cc2c[nH]cn2)NC(=O)CNC(=O)CCC(C(N)=O)NC(=O)[C@H](Cc2c[nH]c3ccccc23)NC1=O (some centres unmarked) [Example 9] (GH[dF]RW[ξE]-NH2; lactam N-6)
[1]
  IC50: > 1000 nM
[2]
  IC50: 290 nM
[3]
  IC50: > 1 µM
[4]
  EC50: 2200 nM
[5]
  EC50: 35 nM
[6]
  CAMP Assay hMC-5R, % activation at a single concentration: 15% @ 5

## N=C(N)NCCC[C@@H]1NC(=O)[C@@H](Cc2ccccc2)NC(=O)[C@H](Cc2c[nH]cn2)NC(=O)CCC(=O)NCCC(C(N)=O)NC(=O)[C@H](Cc2c[nH]c3ccccc23)NC1=O (some centres unmarked) [Example 2] (H[dF]RW[ξDab]-NH2; linker N-5 via Suc)
[1]
  IC50: 1800 nM
[2]
  IC50: 35 nM
[3]
  IC50: 7.2 µM
[4]
  EC50: 240 nM
[5]
  EC50: 2.9 nM
[6]
  EC50: 2200 nM

## N=C(N)NCCC[C@@H]1NC(=O)[C@@H](Cc2ccccc2)NC(=O)[C@H](Cc2c[nH]cn2)NC(=O)CCCNC(=O)CCC(C(N)=O)NC(=O)[C@H](Cc2c[nH]c3ccccc23)NC1=O (some centres unmarked) [Example 7] ([GABA]H[dF]RW[ξE]-NH2; lactam N-6)
[1]
  IC50: 1830 nM
[2]
  IC50: 41 nM
[3]
  IC50: > 5 µM
[4]
  EC50: 310 nM
[5]
  EC50: 5.7 nM
[6]
  EC50: > 5000 nM

## SHU9119
[7]
  Food intake: increased food intake; also recorded: stimulates food intake
[7]; intraventricular administration
  Body weight: increased food intake and body weight
